One data set deals with T1, PI3Kβ (Homo sapiens, UniProt P42338).
T1 construct: p110β(2-1070)-His; made in house; host or cells: baculovirus, Tn5 insect cells
Description: PI3K KinaseGlo assay, PI3Kβ. It counts as biochemical. The following applies: KinaseGlo; 25 nM enzyme, 1 μM ATP, 30 mins, room temperature; read-out: PI3Kb/IC50. The protocol: PI3K KinaseGlo assay: […] of compound dilutions were dispensed onto black 384-well low volume Non Binding Styrene (NBS) plates (Costar Cat. No. NBS#3676). L-a-phosphatidylinositol (PI), provided as 10 mg/ml solution in methanol, was transferred into a glass tube and dried under nitrogen beam. It was then resuspended in 3% OctylGlucoside (OG) by vortexing and stored at 4° C. The KinaseGlo Luminescent Kinase Assay (Promega, Madison/WI, USA) is a homogeneous HTS method of measuring kinase activity by quantifying the amount of ATP remaining in solution following a kinase reaction.
5 μL of a mix of PI/OG with the PI3K subtype were added (Table 1). Kinase reactions were started by addition of 5 μl of ATP-mix containing in a final volume 10 μL 10 mM TRIS-HCl pH 7.5, 3 mM MgCl2, 50 mM NaCl, 0.05% CHAPS, 1 mM DTT and 1 μM ATP, and occurred at room temperature. […] The standard was used as a reference compound and included in all assay plates in the form of 16 dilution points in duplicate.
The PI3Kα, PI3Kβ and PI3Kδ constructs are fusion of p85α iSH2 domain and the respective p110 isoforms. The p85α fragment and p110 isoform genes were generated by PCR from first strand cDNA generated by RT-PCR from commercial RNA from placenta, testis and brain as described below. The PI3Kγ construct was obtained from Roger Williams lab, MRC Laboratory of Molecular Biology, Cambridge, UK (November, 2003) and is described (Pacold, Michael E.; Suire, Sabine; Perisic, Olga; Lara-Gonzalez, Samuel; Davis, Colin T.; Walker, Edward H.; Hawkins, Phillip T.; Stephens, Len; Eccleston, John F.; Williams, Roger L. Crystal structure and functional analysis of Ras binding to its effector phosphoinositide 3-kinase gamma. Cell (2000), 103(6), 931-943).
BV949: PCR products for the inter SH2 domain (iSH2) of the p85 PI3Kα, PI13Kβ and PI3Kδ subunit and for the full-length p110β subunit were generated and fused by overlapping PCR. […] The p11013 fragment was obtained by PCR using as template a p110β clone (from unknown source that was sequence verified) using primers gwG130-p04 (5′-[…]-[…]-3′) (SEQ ID NO: 9) which contains linker sequences and the 5′ end of p110β and gwG130-p06 (5′-[…]-[…]-3′) (SEQ ID NO: 10) which contains sequences of the 3′ end of p110-β fused to a Histidine tag. […] This final product was recombined in a Gateway (Invitrogen) […] into the donor vector pDONR201 (Invitrogen) to generate the ORF253 entry clone. This clone was verified by sequencing and used in a Gateway LR reaction (Invitrogen) to transfer the insert into the Gateway adapted pBlueBac4.5 (Invitrogen) vector for generation of the baculovirus expression vector LR280.
(§1) PI3Kα, PI3Kβ and PI3Kγ were purified in two chromatographic steps: immobilized metal affinity chromatography (IMAC) on a Ni sepharose resin (GE Healthcare) and gel filtration utilizing a Superdex 200 26/60 column (GE Healthcare). All buffers were chilled to 4° C. and lysis was performed chilled on ice. Column fractionation was performed at room temperature. All buffers used to purify PI3Kβ contained 0.05% Triton X100 in addition to what is described below.
The lysate was centrifuged at 45,000 g for 30 minutes, and the supernatant was loaded onto a pre-equilibrated IMAC column (3 mL resin/100 mL lysate). […] Protein was eluted with 20 mM Tris-Cl, pH 7.5, 0.5 M NaCl, 5% glycerol, 250 mM imidazole, 1 mM NaF, 0.1 μg/mL OAA, 5 mM BME, 1× Complete protease inhibitor cocktail—EDTA-free. Pertinent fractions were analyzed by SDS-PAGE and pooled accordingly. The protein was further purified by gel filtration on a Superdex 200 26/60 column equilibrated in 20 mM Tris-Cl, pH 7.5, 0.5 M NaCl, 5% glycerol, 1 mM NaF, 5 mM DTT, 1× Complete protease inhibitor cocktail—EDTA-free. Pertinent fractions were analyzed by SDS-PAGE and pooled accordingly.

For another data set, the target named is T2, PI3Kδ (Homo sapiens, UniProt O00329).
T2 construct: p85iSH2(461-568)-GGGGGG-p110δ(2-1044)-His; made in house; host or cells: baculovirus, Tn5 insect cells
T2 sequence (O00329 with tags, fused parts or gaps): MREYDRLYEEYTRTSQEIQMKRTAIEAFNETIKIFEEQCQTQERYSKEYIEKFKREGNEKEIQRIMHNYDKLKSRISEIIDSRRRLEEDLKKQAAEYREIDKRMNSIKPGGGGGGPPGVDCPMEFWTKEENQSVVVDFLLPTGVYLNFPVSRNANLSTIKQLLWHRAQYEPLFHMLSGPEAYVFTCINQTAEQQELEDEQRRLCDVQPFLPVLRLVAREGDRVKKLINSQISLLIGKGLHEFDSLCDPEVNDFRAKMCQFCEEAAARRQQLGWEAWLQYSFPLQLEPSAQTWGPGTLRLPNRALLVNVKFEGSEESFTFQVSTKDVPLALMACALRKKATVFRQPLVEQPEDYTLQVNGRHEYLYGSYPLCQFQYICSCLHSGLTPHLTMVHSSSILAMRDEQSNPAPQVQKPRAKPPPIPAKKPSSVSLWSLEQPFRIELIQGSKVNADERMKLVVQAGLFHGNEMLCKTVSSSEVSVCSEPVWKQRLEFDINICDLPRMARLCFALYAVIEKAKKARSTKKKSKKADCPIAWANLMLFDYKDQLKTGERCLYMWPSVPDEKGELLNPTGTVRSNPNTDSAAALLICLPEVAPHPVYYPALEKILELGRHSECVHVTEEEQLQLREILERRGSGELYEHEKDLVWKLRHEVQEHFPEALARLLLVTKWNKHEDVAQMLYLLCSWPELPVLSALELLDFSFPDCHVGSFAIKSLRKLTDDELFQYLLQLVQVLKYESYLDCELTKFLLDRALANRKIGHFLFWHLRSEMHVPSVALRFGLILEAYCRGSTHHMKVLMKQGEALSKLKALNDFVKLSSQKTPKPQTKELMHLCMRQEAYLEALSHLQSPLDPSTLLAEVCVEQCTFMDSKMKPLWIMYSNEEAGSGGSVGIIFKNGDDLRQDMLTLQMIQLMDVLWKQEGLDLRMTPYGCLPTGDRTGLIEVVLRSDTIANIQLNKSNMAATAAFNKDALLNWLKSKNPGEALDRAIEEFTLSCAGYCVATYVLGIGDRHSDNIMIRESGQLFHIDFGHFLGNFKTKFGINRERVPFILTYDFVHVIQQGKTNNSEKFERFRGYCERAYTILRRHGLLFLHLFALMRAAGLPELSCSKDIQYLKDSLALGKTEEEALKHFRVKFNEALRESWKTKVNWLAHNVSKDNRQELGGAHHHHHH
Description: PI3K KinaseGlo assay, PI3Kδ. To be noted: 10 nM enzyme, 1 μM ATP, 30 mins, room temperature, read-out: PI3Kd/IC50. In kind it is biochemical. For orientation: In Kinase-Glo more light means more ATP remaining.

In another data set the target is T3, PI3Kα (Homo sapiens, UniProt P42336).
T3 construct: p110α(21-1068)-His; made in house; host or cells: baculovirus, Tn5 insect cells
T3 sequence (P42336 with tags, fused parts or gaps): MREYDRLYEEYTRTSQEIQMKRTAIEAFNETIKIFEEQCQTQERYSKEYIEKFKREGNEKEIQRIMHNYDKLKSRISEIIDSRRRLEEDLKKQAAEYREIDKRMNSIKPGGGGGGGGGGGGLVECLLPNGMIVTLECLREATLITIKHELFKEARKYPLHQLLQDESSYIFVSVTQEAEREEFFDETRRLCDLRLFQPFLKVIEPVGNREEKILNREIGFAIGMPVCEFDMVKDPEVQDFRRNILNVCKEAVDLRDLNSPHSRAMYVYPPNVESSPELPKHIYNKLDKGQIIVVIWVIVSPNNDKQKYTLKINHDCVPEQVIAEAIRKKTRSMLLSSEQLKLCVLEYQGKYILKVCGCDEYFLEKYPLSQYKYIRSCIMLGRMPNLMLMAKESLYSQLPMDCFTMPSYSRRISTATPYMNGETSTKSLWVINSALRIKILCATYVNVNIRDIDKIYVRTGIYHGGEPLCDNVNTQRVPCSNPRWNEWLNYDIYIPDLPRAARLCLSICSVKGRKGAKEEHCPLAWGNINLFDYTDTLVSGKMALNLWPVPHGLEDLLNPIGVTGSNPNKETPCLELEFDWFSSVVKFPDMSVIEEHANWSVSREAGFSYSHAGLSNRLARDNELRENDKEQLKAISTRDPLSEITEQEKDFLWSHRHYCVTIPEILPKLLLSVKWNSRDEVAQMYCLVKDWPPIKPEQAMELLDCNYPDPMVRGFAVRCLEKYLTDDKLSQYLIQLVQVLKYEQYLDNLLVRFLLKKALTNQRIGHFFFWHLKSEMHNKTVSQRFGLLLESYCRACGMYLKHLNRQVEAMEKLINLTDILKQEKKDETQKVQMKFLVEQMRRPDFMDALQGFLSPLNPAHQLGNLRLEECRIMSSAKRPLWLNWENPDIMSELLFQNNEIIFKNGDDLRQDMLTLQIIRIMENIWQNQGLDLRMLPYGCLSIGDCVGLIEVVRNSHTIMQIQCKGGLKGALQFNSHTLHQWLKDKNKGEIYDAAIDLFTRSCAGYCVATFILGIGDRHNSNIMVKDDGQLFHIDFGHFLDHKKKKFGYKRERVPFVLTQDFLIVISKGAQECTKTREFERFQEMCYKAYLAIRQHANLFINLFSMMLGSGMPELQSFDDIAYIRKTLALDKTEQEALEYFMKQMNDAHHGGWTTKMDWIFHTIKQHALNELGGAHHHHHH
Description: PI3K KinaseGlo assay, PI3Kα. In kind it is biochemical. To be noted: KinaseGlo; 10 nM enzyme, 1 μM ATP, 30 mins, room temperature; read-out: PI3Ka/IC50.

The target of the next data set is T4, PI3Kalpha E545K (Homo sapiens, UniProt P42336, E545K).
T4 construct: made in house; host or cells: baculovirus (vector LR561)
T4 sequence (P42336 with tags, fused parts or gaps E545K): as the sequence (P42336 with tags, fused parts or gaps) above, with G112I, G113S, G119I, G120M, G121V, E646K counted along it
Kind of data set: Luciferase luminescence assay (KinaseGlo), PI3Kalpha E545K. It counts as biochemical. To be noted: construct BV1147; 1 μM ATP, 15 min preincubation, 1 h, room temperature; read-out: PI3Kalpha E545K IC50s. The source says: (§2) Luminescence is a well established readout to determine ATP concentrations and can thus be used to follow the activity of many kinases regardless of their substrate. The KinaseGlo Luminescent Kinase Assay (Promega, Madison/WI, USA) is a homogeneous HTS method of measuring kinase activity by quantifying the amount of ATP remaining in solution following a kinase reaction.

A further data set has as its target T5, PI3Kalpha wild type (Homo sapiens, UniProt P42336).
T5 construct: p110α(21-1068)-His; made in house
Description: Luciferase luminescence assay (KinaseGlo), PI3Kalpha wild type. In kind it is biochemical. The following applies: construct BV1075; 1 μM ATP, 15 min preincubation, 1 h, room temperature; read-out: PI3Kalpha wild type IC50s.
From the text: as §2

Another data set concerns the target T6, PI3Kγ (Homo sapiens, UniProt P48736, Q459R).
T6 construct: p110γ(Δ143-[Met144-1102])-His; made in house; host or cells: Tn5 insect cells; construct from Roger Williams lab, MRC LMB
Kind of data set: PI3K KinaseGlo assay, PI3Kγ. In kind it is biochemical. The following applies: 150 nM enzyme, 1 μM ATP, 90 mins, room temperature, read-out: PI3Kg/IC50. The protocol:
L-a-phosphatidylinositol (PI), provided as 10 mg/ml solution in methanol, was transferred into a glass tube and dried under nitrogen beam. It was then resuspended in 3% OctylGlucoside (OG) by vortexing and stored at 4° C. The KinaseGlo Luminescent Kinase Assay (Promega, Madison/WI, USA) is a homogeneous HTS method of measuring kinase activity by quantifying the amount of ATP remaining in solution following a kinase reaction.
5 μL of a mix of PI/OG with the PI3K subtype were added (Table 1). Kinase reactions were started by addition of 5 μl of ATP-mix containing in a final volume 10 μL 10 mM TRIS-HCl pH 7.5, 3 mM MgCl2, 50 mM NaCl, 0.05% CHAPS, 1 mM DTT and 1 μM ATP, and occurred at room temperature. […] The standard was used as a reference compound and included in all assay plates in the form of 16 dilution points in duplicate. […]
as §1
The lysate was centrifuged at 45,000 g for 30 minutes, and the supernatant was loaded onto a pre-equilibrated IMAC column (3 mL resin/100 mL lysate). […] Protein was eluted with 20 mM Tris-Cl, pH 7.5, 0.5 M NaCl, 5% glycerol, 250 mM imidazole, 1 mM NaF, 0.1 μg/mL OAA, 5 mM BME, 1× Complete protease inhibitor cocktail—EDTA-free. Pertinent fractions were analyzed by SDS-PAGE and pooled accordingly. The protein was further purified by gel filtration on a Superdex 200 26/60 column equilibrated in 20 mM Tris-Cl, pH 7.5, 0.5 M NaCl, 5% glycerol, 1 mM NaF, 5 mM DTT, 1× Complete protease inhibitor cocktail—EDTA-free. Pertinent fractions were analyzed by SDS-PAGE and pooled accordingly. An equal volume of Dialysis Buffer (20 mM Tris-Cl, pH 7.5, 500 mM NaCl, 50% glycerol, 5 mM NaF, 5 mM DTT) was added to the pool and than dialyzed against Dialysis Buffer two changes (one change overnight). Protein was stored at −20° C.

Another data set has as its target T7, PI3Kalpha H1047R (Homo sapiens, UniProt P42336, H1047R).
T7 construct: made in house; host or cells: baculovirus (vector LR480)
Kind of data set: Luciferase luminescence assay (KinaseGlo), PI3Kalpha H1047R. It counts as biochemical. The following applies: construct BV1097; 1 μM ATP, 15 min preincubation, 1 h, room temperature; read-out: PI3Kalpha H1047R IC50s.
From the text: as §2

Data set [1] can be described thus: In vitro metabolic clearance, human liver microsomes (CYP MetCL-Hu). In kind it is in vitro ADME. To be noted: human liver microsomes 0.5 mg/mL, test article 1.0 μM, NADPH, 37° C.; read-out: CYP MetCL-Hu/CL(int). The protocol:
(§3) Final test article and protein concentrations, as well as incubation duration, are shown below (Table 1). Low test article concentrations were selected to comply with the assumption that reaction kinetics are evaluated at a concentration less than (or approximately equal to) Km. DMSO is known to have an inhibitory effect on CYP activity. Therefore, the concentration of DMSO in the incubation media has been restricted to 0.01% (v/v) so that interference to the metabolic process is minimized.
(§4) A typical experiment is performed in 96-well format with shaking incubation at 37° C. […] A 30 minutes negative control incubation (minus cofactor) is also performed to assess CYP-unrelated stability issues (eg, chemical instability, CYP-independent metabolism).
In general, TA's in 10 mM DMSO are diluted 1:1000 into 0.6% ACN (v/v) in DiH20 to 10 μM. […] For evaluation of UGT-mediated metabolism, the suspension may be first pretreated by 5 min incubation on ice with alamethicin (25 μg/mg of microsomal protein). TA (35 μL) is added to 140 μL of the microsomal suspensions for 175 μL enzymesubstrate mixture. […] The 30 min negative control incubation is processed by combining 25 μL of enzyme.substrate mixture with an equal volume of 50 mM KPi containing 4 mM MgCl2. Following a 30 minute incubation at 37° C., the mix is quenched by adding 50 μL of ACN containing the MS internal standard (2 μM alprenolol). The T=0 min time point is processed by combining 25 μL of enzyme.substrate mixture directly with 50 μL of ACN containing the MS internal standard (2 μM alprenolol). 25 μL of the cofactor solution is added (2 mM NADPH in 50 mM KPi plus 4 mM MgCl2; optionally including 2 mM UDPGA for CYP+UGT assays) to simulate the complete quenched reaction mixture.
(§5) The bulk reactions for the remaining time points are initiated by addition of 125 μL of cofactor solution (2 mM NADPH in 50 mM KPi plus 4 mM MgCl2) to the remaining 125 μL of enzyme.substrate mixture. […] All the samples are centrifuged at ˜3400×g at 4° C. for 10 min and the supernatants are analyzed by LC-MS/MS for quantitation of remaining TA. […]

Data set [2] can be described thus: In vitro metabolic clearance, rat liver microsomes (CYP MetCL-Ra). It counts as in vitro ADME. The following applies: rat liver microsomes 0.5 mg/mL, test article 1.0 μM, NADPH, 37° C.; read-out: CYP MetCL-Ra/CL(int). The protocol: as §3, §4
In general, TA's in 10 mM DMSO are diluted 1:1000 into 0.6% ACN (v/v) in DiH20 to 10 μM. […] For evaluation of UGT-mediated metabolism, the suspension may be first pretreated by 5 min incubation on ice with alamethicin (25 μg/mg of microsomal protein). […]
as §5

Consider four compounds from patent publication US8710085B2, “Pyrrolidine-1,2-dicarboxamide derivatives” (Novartis AG, priority 2008, dated 2014).

T1 sequence (P42338 with tags, fused parts or gaps): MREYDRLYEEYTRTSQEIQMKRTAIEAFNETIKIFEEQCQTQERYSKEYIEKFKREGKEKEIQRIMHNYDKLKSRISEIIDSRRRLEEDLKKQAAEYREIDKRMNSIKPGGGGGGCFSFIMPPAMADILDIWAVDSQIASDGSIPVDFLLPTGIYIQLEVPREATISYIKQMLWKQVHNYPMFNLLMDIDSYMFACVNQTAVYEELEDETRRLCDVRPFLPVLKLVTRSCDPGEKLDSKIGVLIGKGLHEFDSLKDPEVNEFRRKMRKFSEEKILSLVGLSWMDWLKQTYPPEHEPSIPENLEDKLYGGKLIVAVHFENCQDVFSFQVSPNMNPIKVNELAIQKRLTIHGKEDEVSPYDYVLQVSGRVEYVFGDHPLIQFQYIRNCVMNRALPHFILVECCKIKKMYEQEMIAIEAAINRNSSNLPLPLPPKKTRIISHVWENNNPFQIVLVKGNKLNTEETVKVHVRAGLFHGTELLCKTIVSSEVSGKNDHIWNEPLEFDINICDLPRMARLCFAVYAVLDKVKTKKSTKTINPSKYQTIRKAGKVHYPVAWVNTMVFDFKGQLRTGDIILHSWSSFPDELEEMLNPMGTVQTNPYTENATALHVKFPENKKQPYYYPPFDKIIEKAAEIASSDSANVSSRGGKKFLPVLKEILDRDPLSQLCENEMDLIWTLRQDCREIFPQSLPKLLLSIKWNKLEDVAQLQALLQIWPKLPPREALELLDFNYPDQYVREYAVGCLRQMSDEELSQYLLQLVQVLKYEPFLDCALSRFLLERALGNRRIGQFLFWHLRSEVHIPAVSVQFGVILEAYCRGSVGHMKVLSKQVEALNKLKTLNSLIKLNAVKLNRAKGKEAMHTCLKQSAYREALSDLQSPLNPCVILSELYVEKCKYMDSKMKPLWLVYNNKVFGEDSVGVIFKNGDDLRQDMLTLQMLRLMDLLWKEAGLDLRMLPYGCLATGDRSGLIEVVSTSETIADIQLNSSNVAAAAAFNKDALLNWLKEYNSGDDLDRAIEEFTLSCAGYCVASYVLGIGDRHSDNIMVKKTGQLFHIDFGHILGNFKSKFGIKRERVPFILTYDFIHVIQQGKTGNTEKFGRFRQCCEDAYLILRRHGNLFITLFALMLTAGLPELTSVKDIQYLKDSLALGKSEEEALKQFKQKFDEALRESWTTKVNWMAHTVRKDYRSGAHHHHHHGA
T5 sequence (P42336 with tags, fused parts or gaps): as the sequence (P42336 with tags, fused parts or gaps) above
T7 sequence (P42336 with tags, fused parts or gaps H1047R): as the sequence (P42336 with tags, fused parts or gaps) above, with G112I, G113S, G119I, G120M, G121V, H1148R counted along it
T6 sequence (P48736 with tags, fused parts or gaps Q459R): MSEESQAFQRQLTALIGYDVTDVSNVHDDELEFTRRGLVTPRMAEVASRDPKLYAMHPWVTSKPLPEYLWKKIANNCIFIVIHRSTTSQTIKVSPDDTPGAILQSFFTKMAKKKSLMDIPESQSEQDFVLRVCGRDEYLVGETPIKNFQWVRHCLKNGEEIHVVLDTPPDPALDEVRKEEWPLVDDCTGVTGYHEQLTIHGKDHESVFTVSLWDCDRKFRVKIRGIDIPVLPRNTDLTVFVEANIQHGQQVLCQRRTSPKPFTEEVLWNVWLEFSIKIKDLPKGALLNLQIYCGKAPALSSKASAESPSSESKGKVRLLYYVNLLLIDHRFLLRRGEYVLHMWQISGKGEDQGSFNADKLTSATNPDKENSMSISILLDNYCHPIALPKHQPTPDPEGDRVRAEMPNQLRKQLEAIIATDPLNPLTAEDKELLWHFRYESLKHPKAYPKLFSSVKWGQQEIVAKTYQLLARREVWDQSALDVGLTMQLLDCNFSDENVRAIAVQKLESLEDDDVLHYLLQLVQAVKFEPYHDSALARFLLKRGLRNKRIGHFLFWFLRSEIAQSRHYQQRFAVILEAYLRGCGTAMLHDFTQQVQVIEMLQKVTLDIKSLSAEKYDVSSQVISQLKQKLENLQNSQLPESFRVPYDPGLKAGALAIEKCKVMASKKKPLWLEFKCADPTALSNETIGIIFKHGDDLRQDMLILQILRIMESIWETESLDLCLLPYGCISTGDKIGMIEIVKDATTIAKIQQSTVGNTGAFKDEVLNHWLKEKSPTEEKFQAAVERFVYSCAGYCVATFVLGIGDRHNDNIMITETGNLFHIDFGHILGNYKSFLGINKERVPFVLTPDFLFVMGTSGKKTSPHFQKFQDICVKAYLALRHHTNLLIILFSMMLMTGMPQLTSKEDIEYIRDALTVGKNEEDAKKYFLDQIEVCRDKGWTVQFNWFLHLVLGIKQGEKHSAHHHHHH

For `Cc1nc(NC(=O)N2CCC[C@H]2C(N)=O)sc1-c1ccnc(C2(C)CC2)c1` [Example 5, (S)-Pyrrolidine-1,2-dicarboxylic acid 2-amide 1-({4-methyl-5-[2-(1-methylcyclopropyl)-pyridin-4-yl]-thiazol-2-yl}-amide)], the IC50 was found to be 3900 nM on PI3Kβ; 648 nM at PI3Kδ; 44 nM at PI3Kα; 6.7 nM on PI3Kalpha E545K; 8.2 nM at PI3Kalpha wild type; 2050 nM at PI3Kγ. Further, the IC50 at PI3Kalpha H1047R is 7.7 nM.
Regarding `Cc1nc(NC(=O)N2CCC[C@H]2C(N)=O)sc1-c1ccnc(C(C)(C)C(F)(F)F)c1` [Example 15, (S)-Pyrrolidine-1,2-dicarboxylic acid 2-amide 1-({4-methyl-5-[2-(2,2,2-trifluoro-1,1-dimethyl-ethyl)-pyridin-4-yl]-thiazol-2-yl}-amide)], the microsomal CLint at 1 μM in data set [1] was 33 µL/min/mg.
Take `Cc1nc(NC(=O)N2CCC[C@H]2C(N)=O)sc1-c1ccnc(C(C)(CF)CF)c1` [Example 55, (S)-Pyrrolidine-1,2-dicarboxylic acid 2-amide 1-({5-[2-(2-fluoro-1-fluoromethyl-1-methyl-ethyl)-pyridin-4-yl]-4-methyl-thiazol-2-yl}-amide)]: the microsomal CLint at 1 μM is 27 µL/min/mg in [1] and 29 µL/min/mg in [2].
Turning to `[2H]C([2H])([2H])C(c1nccc(-c2sc(NC(=O)N3CCC[C@H]3C(N)=O)nc2C)n1)(C([2H])([2H])[2H])C([2H])([2H])[2H]` [Example 61, (S)-Pyrrolidine-1,2-dicarboxylic acid 2-amide 1-{[5-(2-d9-tert-butyl-pyrimidin-4-yl)-4-methyl-thiazol-2-yl]-amide}], the microsomal CLint at 1 μM was found to be 19 µL/min/mg in [1] and 22 µL/min/mg in data set [2].
